Patent US20100267561A1, “HERBICIDAL PYRIDAZINONE DERIVATIVES” (priority 2007, published 2010)

Assays:
Assay type in all cases: in vivo
[1] = system: blackgrass (Alopecurus myosuroides); assay: Test B pre-/postemergence plant response; conditions: for Blackgrass plant response rating: 8 g ai/ha, postemergence, 0-100 scale
Excerpt: (§1) Seeds of plant species selected from blackgrass (Alopecurus myosuroides), downy bromegrass (Bromus tectorum), green foxtail (Setaria viridis), Italian ryegrass (Lolium multiflorum), wheat (Triticum aestivum), wild oat (Avena fatua), catchweed bedstraw (Galium aparine), bermudagrass (Cynodon dactylon), surinam grass (Brachiaria decumbens), cocklebur (Xanthium strumarium), corn (Zea mays), large crabgrass (Digitaria sanguinalis), woolly cupgrass (Eriochloa villosa), giant foxtail (Setaria faberii), goosegrass (Eleusine indica), johnsongrass (Sorghum halepense), kochia (Kochia scoparia), lambsquarters (Chenopodium album), morningglory (Ipomoea coccinea), eastern black (E.B.) nightshade (Solanum ptycanthum), yellow nutsedge (Cyperus esculentus), pigweed (Amaranthus retroflexus), common ragweed (Ambrosia elation), Russian thistle (Salsola iberica), soybean (Glycine max), common (oilseed) sunflower (Helianthus annuus), and velvetleaf (Abutilon theophrasti) were planted and treated preemergence with test chemicals formulated in a non-phytotoxic solvent mixture which included a surfactant.
(§2) At the same time, plants selected from these crop and weed species and also winter barley (Hordeum vulgare), canarygrass (Phalaris minor), chickweed (Stellaria media) and windgrass (Apera spica-venti) were treated with postemergence applications of some of the test chemicals formulated in the same manner. Plants ranged in height from 2 to 18 cm (1- to 4-leaf stage) for postemergence treatments.
(§3) Plant species in the flooded paddy test consisted of rice (Oryza sativa), umbrella sedge (Cyperus difformis), ducksalad (Heteranthera limosa) and barnyardgrass (Echinochloa crus-galli) grown to the 2-leaf stage for testing. At time of treatment, test pots were flooded to 3 cm above the soil surface, treated by application of test compounds directly to the paddy water, and then maintained at that water depth for the duration of the test. Treated plants and controls were maintained in a greenhouse for 13 to 15 days, after which time all species were compared to controls and visually evaluated. Plant response ratings, summarized in Table B, are based on a scale of 0 to 100 where 0 is no effect and 100 is complete control. A dash (-) response means no test result.

[2] = system: morningglory (Ipomoea coccinea); assay: Test B pre-/postemergence plant response; conditions: for Morningglory plant response rating: 8 g ai/ha
Excerpt: as §1, §2, §3

[3] = system: lambsquarters (Chenopodium album); assay: Test B pre-/postemergence plant response; conditions: for Lambsquarters plant response rating: 8 g ai/ha
Excerpt: as §1, §2, §3

[4] = system: velvetleaf (Abutilon theophrasti); assay: Test A pre-/postemergence plant response
Outline: (§4)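 Seeds were planted in blended loam soil and sand, then treated preemergence by directed soil spray. At that time, emerged plants (one- to two-leaf, 2–10 cm) received postemergence applications of the same surfactant-containing formulation. Injury was assessed visually on a 0–100 scale after approximately 10 days.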

[5] = system: wheat (Triticum aestivum); assay: Test A pre-/postemergence plant response
Outline: as §4

corn (Zea mays) = assay: Test A pre-/postemergence plant response
Outline: as §4

[6] = system: pigweed (Amaranthus retroflexus); assay: Test A pre-/postemergence plant response
Outline: as §4

[7] = system: barnyardgrass (Echinochloa crus-galli); assay: Test A pre-/postemergence plant response
Outline: as §4

[8] = system: giant foxtail (Setaria faberi); assay: Test A pre-/postemergence plant response
Outline: as §4

[9] = system: morningglory (Ipomoea coccinea); assay: Test A pre-/postemergence plant response
Outline: as §4

[10] = system: large crabgrass (Digitaria sanguinalis); assay: Test A pre-/postemergence plant response
Outline: as §4

[11] = Postemergence, 16 g ai/ha, scale 0 to 100
[12] = Postemergence, 31 g ai/ha, scale 0 to 100, 0 no effect, 100 complete control
[13] = Postemergence, 62 g ai/ha, scale 0 to 100, 0 no effect, 100 complete control
[14] = Preemergence, 16 g ai/ha, scale 0 to 100 (0 no effect, 100 complete control)
[15] = Preemergence, 31 g ai/ha, 0 to 100 scale, 0 no effect, 100 complete control
[16] = Preemergence, 62 g ai/ha, scale 0 to 100
[17] = Postemergence, 31 g ai/ha, 0 to 100 scale, 0 no effect, 100 complete control
[18] = Postemergence, 125 g ai/ha, 0 to 100 scale, 0 no effect, 100 complete control
[19] = Preemergence, 31 g ai/ha, 0 to 100 scale, 0 is no effect, 100 is complete control
[20] = Preemergence, 125 g ai/ha, 0 to 100 scale (0 no effect, 100 complete control)
[21] = Postemergence, 31 g ai/ha, scale 0 to 100

Cc1cc(-c2ccc(Cl)cc2)nn1-c1c(OC(=O)c2cccc(Cl)c2)cnn(C)c1=O [Compound 32]
Blackgrass plant response rating [1]: 30
Plant response rating, Blackgrass [1, 11]: 35
Plant response rating, Blackgrass [1, 12]: 70
Plant response rating, Blackgrass [1, 13]: 70
Plant response rating, Blackgrass [1, 14]: 85
Plant response rating, Blackgrass [1, 15]: 95
Plant response rating, Blackgrass [1, 16]: 98
Morningglory plant response rating ([2]; postemergence, 0-100 scale): 0
Plant response rating, Morningglory [2, 11]: 0
Plant response rating, Morningglory [2, 12]: 0
Plant response rating, Morningglory [2, 13]: 0
Plant response rating, Morningglory [2, 14]: 0
Plant response rating, Morningglory [2, 15]: 0
Plant response rating, Morningglory [2, 16]: 0
Morningglory plant response rating ([2]; Preemergence, scale 0 to 100): 0
Lambsquarters plant response rating ([3]; postemergence, 0-100 scale): 0
Plant response rating, Lambsquarters [3, 11]: 0
Plant response rating, Lambsquarters [3, 12]: 0
Plant response rating, Lambsquarters [3, 13]: 0
Plant response rating, Lambsquarters [3, 14]: 0
Plant response rating, Lambsquarters [3, 15]: 0
Plant response rating, Lambsquarters [3, 16]: 0
Lambsquarters plant response rating ([3]; Preemergence, scale 0 to 100): 0
Plant response rating, Velvetleaf [4, 17]: 0
Plant response rating, Velvetleaf [4, 18]: 0
Plant response rating, Velvetleaf [4, 19]: 0
Plant response rating, Velvetleaf [4, 20]: 10
Plant response rating, Wheat [5, 17]: 0
Plant response rating, Wheat [5, 18]: 20
Plant response rating, Wheat [5, 19]: 0
Plant response rating, Wheat [5, 20]: 60
Plant response rating, Corn (corn (Zea mays); [17]): 0
Plant response rating, Corn (corn (Zea mays); [18]): 50
Plant response rating, Corn (corn (Zea mays); [19]): 0
Plant response rating, Corn (corn (Zea mays); [20]): 60
Plant response rating, Pigweed [6, 17]: 0
Plant response rating, Pigweed [6, 18]: 10
Plant response rating, Pigweed [6, 20]: 0
Plant response rating, Barnyardgrass [7, 17]: 0
Plant response rating, Barnyardgrass [7, 18]: 70
Plant response rating, Barnyardgrass [7, 19]: 20
Plant response rating, Barnyardgrass [7, 20]: 90
Plant response rating, Foxtail, Giant [8, 17]: 10
Plant response rating, Foxtail, Giant [8, 18]: 90
Plant response rating, Foxtail, Giant [8, 19]: 90
Plant response rating, Foxtail, Giant [8, 20]: 100
Plant response rating, Morningglory [9, 17]: 0
Plant response rating, Morningglory [9, 18]: 0
Plant response rating, Morningglory [9, 19]: 0
Plant response rating, Morningglory [9, 20]: 0
Plant response rating, Crabgrass, Large [10, 17]: 10
Plant response rating, Crabgrass, Large [10, 18]: 70
Plant response rating, Crabgrass, Large [10, 19]: 90
Plant response rating, Crabgrass, Large [10, 20]: 90

Cn1ncc(O)c(-n2nc(-c3ccc(Cl)cc3)cc2C2CC2)c1=O [Compound 45]
Blackgrass plant response rating [1]: 0
Plant response rating, Blackgrass [1, 11]: 20
Plant response rating, Blackgrass [1, 21]: 85
Plant response rating, Blackgrass [1, 13]: 90
Plant response rating, Blackgrass [1, 14]: 98
Plant response rating, Blackgrass [1, 15]: 100
Plant response rating, Blackgrass [1, 16]: 100
Morningglory plant response rating ([2]; postemergence, 0-100 scale): 0
Plant response rating, Morningglory [2, 11]: 0
Plant response rating, Morningglory [2, 21]: 0
Plant response rating, Morningglory [2, 13]: 0
Plant response rating, Morningglory [2, 14]: 0
Plant response rating, Morningglory ([2]; Preemergence, 31 g ai/ha, scale 0 to 100 (0 no effect, 100 complete control)): 0
Plant response rating, Morningglory [2, 16]: 0
Morningglory plant response rating ([2]; Preemergence, scale 0 to 100): 0
Lambsquarters plant response rating ([3]; postemergence, 0-100 scale): 0
Plant response rating, Lambsquarters [3, 11]: 0
Plant response rating, Lambsquarters [3, 21]: 0
Plant response rating, Lambsquarters [3, 13]: 0
Plant response rating, Lambsquarters [3, 14]: 0
Plant response rating, Lambsquarters [3, 15]: 0
Plant response rating, Lambsquarters [3, 16]: 0
Lambsquarters plant response rating ([3]; Preemergence, scale 0 to 100): 0
Plant response rating, Velvetleaf [4, 17]: 0
Plant response rating, Velvetleaf [4, 18]: 0
Plant response rating, Velvetleaf [4, 19]: 0
Plant response rating, Velvetleaf [4, 20]: 0
Plant response rating, Wheat [5, 17]: 70
Plant response rating, Wheat [5, 18]: 90
Plant response rating, Wheat [5, 19]: 50
Plant response rating, Wheat [5, 20]: 80
Plant response rating, Corn (corn (Zea mays); [17]): 40
Plant response rating, Corn (corn (Zea mays); [18]): 80
Plant response rating, Corn (corn (Zea mays); [19]): 0
Plant response rating, Corn (corn (Zea mays); [20]): 60
Plant response rating, Pigweed [6, 17]: 0
Plant response rating, Pigweed [6, 18]: 0
Plant response rating, Pigweed [6, 19]: 0
Plant response rating, Pigweed [6, 20]: 0
Plant response rating, Barnyardgrass [7, 17]: 80
Plant response rating, Barnyardgrass [7, 18]: 100
Plant response rating, Barnyardgrass [7, 19]: 90
Plant response rating, Barnyardgrass [7, 20]: 100
Plant response rating, Foxtail, Giant [8, 17]: 90
Plant response rating, Foxtail, Giant [8, 18]: 100
Plant response rating, Foxtail, Giant [8, 19]: 90
Plant response rating, Foxtail, Giant [8, 20]: 100
Plant response rating, Morningglory [9, 17]: 0
Plant response rating, Morningglory [9, 18]: 0
Plant response rating, Morningglory [9, 19]: 0
Plant response rating, Morningglory [9, 20]: 0
Plant response rating, Crabgrass, Large [10, 17]: 40
Plant response rating, Crabgrass, Large [10, 18]: 100
Plant response rating, Crabgrass, Large [10, 19]: 30
Plant response rating, Crabgrass, Large [10, 20]: 90
